Here are results for 4 compounds from publication PMC6161018, “Synthesis, Structure–Activity Relationships and In Vitro Toxicity Profile of Lactose-Based Fatty Acid Monoesters as Possible Drug Permeability Enhancers” (Pharmaceutics, 2018).

pIC50: −log10 of the molar value. Values joined by “and” are separate entries in the source; they are usually repeats but may differ in a detail not shown here. Identical values can stand only once.

Data set [1] is described as follows: Surface tension measurements (tensiometry), CMC determination. It counts as physicochemical. The settings on record: for Amin (minimum area per surfactant molecule): air-water interface, calculated from Γmax; for γCMC (surface tension at CMC) / CMC (critical micelle concentration): in water, room temperature; for CMC (critical micelle concentration): straight-line interception method; for Γmax × 10^−6 (maximum surface excess): values × 10^−6, Gibbs equation from surface tension plot. As for the experimental part:
Surface tension of different concentrations of surfactant solutions in water was measured using a platinum cylindrical rod probe with wetted length of 1.6 mm (K100-Krüss force tensiometer, Hamburg, Germany) at room temperature. Approximately 1 mL of each surfactant solution was placed onto a Teflon plate and the surface of the liquid was aspirated to remove any remaining impurities. Then, the rod probe was immersed 2 mm into the liquid. Data are expressed as the mean of three repeated measurements performed at room temperature. The critical micelle concentration and the surface tension at the CMC (γCMC) were calculated through the straight-line interception method, while the Gibbs surface excess (Γmax) was calculated from the following equation:(1) Γmax=1/2.303 × n × R × T (δγ/δlogC) where T is the absolute temperature, R is the gas constant (8.314 J/mol K), C is the surfactant concentration, n = 1 for a non-ionic candidate. δγ/δlogC was calculated from the maximum slope of the plot surface tension vs. surfactant concentration in the linear region before CMC.
The minimum area per surfactant molecule at the air-water interface (Amin) was determined as follow:(2) Amin= 10^18/N × Γmax where N is the Avogadro number.

Data set [2] relates to Caco-2 cells. Description: Mitochondrial membrane potential (JC-1 assay). The following applies: Caco-2, 24 h in HBSS, same concentrations compared. The format is cell-based. Here is the method: (§1) Caco-2 and Calu-3 cells were seeded in sterile 96 well plates at a density of 1 × 10^4 cells per well and cultured for 24 h. As above, surfactant solutions were applied in Hank’s balanced salt solution (HBSS) for 24 h. One millimolar FCCP was employed as the positive, mitochondrial depolarizing control. Following exposure, treatments were removed and cells were washed twice with PBS prior to the addition of 50 µL (5 µg/mL) JC-1 dye diluted in complete DMEM (without antibiotics) per well for 15 min at 37 °C. Dye solution was then removed and wells washed with PBS followed by addition of 50 µL/well PBS prior to measuring fluorescence at 550/600 nm (λex/λem) for detection of JC-1 J-aggregates and 485/535 nm (λex/λem) for detection of JC-1 monomers. A ratio between JC-1 aggregates and JC-1 monomer signals was then taken, and data normalized by setting the untreated control as a value of 1.0 and the positive control (1.0 mM FCCP) as a value of 0.0.

Data set [3] deals with Calu-3 cells. Description: Mitochondrial membrane potential (JC-1 assay). The format is cell-based. The following applies: Calu-3, 24 h in HBSS, same concentrations compared. Here is the method:
as §1

In data set [4] the test system is Caco-2 cells. Description: Lactate dehydrogenase (LDH) release assay. The settings on record: Caco-2, 24 h exposure, 50% release of LDH. It counts as cell-based. Here is the method:
(§2) Caco-2 and Calu-3 cells were seeded in sterile 96-well culture plates at a density of 3 × 10^4 cells per well. Surfactant solutions (at the same concentration as in MTT assay described above) were added to the cells and incubated at 37 °C for 24 h. Triton X-100 at 1% v/v was used as positive control. LDH release assay was conducted according to the manufacturer’s protocol. The percentage of released LDH was calculated relative to the controls by taking samples treated with Triton X-100 as complete LDH release and untreated cells as nil LDH release.
(§3) The concentration of surfactant that caused a 50% release of LDH (IC50, mM), was calculated by fitting the experimental data with dose–response model (Prism 6, Version 6.0b, GraphPad Software).

In data set [5] the test system is Calu-3 cells. The data set can be described thus: Lactate dehydrogenase (LDH) release assay. It counts as cell-based. The following applies: Calu-3, 24 h exposure, 50% release of LDH; for pIC50: Homo sapiens. As for the experimental part: as §2, §3
The subject of data set [6] is Caco-2 cells. The data set can be described thus: MTT cell viability assay. It counts as cell-based. The following applies: Caco-2, 24 h exposure, 50% reduction of viable cells; for pIC50: Homo sapiens. As for the experimental part:
(§4) Caco-2 and Calu-3 cells were seeded in sterile 96-well culture plates at a density of 3 × 10^4 cells per well. The cells were incubated to attain at least 80% confluence before the experiment. Stock solutions of surfactants were prepared in phosphate buffered saline (PBS). They were diluted at various concentrations (from 0.0078 to 1 mg/mL) in cell culture medium before added to the cells. Complete culture media were used as control. The cytotoxic effect of each surfactant was evaluated using the MTT cell viability assay. After 24 h of incubation, surfactant solution was discarded and replaced by MTT solution (0.8 mg/mL). The cells were subjected to MTT treatment for 2 h. Formazan crystals formed were then dissolved in absolute isopropanol and incubated with gentle shaking at room temperature for 15 min. Absorbance was measured at 570 nm using a microplate reader (Multiskan™ GO Microplate Spectrophotometer Thermo Scientific, Waltham, MA, USA). Percentage of viable cells was calculated using untreated cells as control with 100% cell viability. The percentage of viable cells was plotted against log concentration of the surfactants. IC50 (mg/mL), the concentration of surfactant that caused a 50% reduction in cell viability was calculated by fitting the experimental data with dose–response model (Prism 6, Version 6.0b, GraphPad Software).

The test system of data set [7] is Calu-3 cells. Description: MTT cell viability assay. The settings on record: Calu-3, 24 h exposure, 50% reduction of viable cells; for pIC50: Homo sapiens. It counts as cell-based. Here is the method:
as §4
In general terms: Formazan colour is commonly taken as a measure of viable cells.

In a further data set the test system is Caco-2 cell monolayer. The data set can be described thus: Trans-epithelial electrical resistance (TEER) measurement. The format is cell-based. The following applies: Caco-2 monolayer, apical, 2 h; applied at MTT IC50 and at highest 100% viability concentration. Here is the method:
(§5) Caco-2 and Calu-3 cells were seeded at a density of 2 × 10^5 cells per well on filter inserts (Transwell® Permeable Support 12 mm Insert, Corning Life Sciences, Tewksbury, MA, USA) and cultured to confluence under air-liquid interface conditions. Culture media on the baso-lateral sides of the cells were changed every 24 h. For TEER measurements, culture medium was discarded from the cell layer and replaced with Kreb’s Balanced Saline Solutions (KBSS) on both the apical and baso-lateral sides of the monolayers. Cell layers were allowed equilibrating in KBSS at 37 °C, 5% CO2 for 45 min prior to sample application. Baseline TEER was measured before the treatment with surfactants. For each surfactant, concentrations that caused 50% cell viability, and the highest concentration that maintained 100% cell viability (according to the MTT assay) were added to the apical sides of the cell layers and incubated for 2 h. TEER was then measured at 5, 30, 60, 90 and 120 min after surfactant addition. Between TEER measurements, cells were incubated at normal cell culture conditions. After 120 min, surfactant was removed, and culture media were added to both sides of the filter inserts. TEER measurement was conducted again after 24 h to evaluate the recovery of cell monolayers. A volt-ohmmeter (Millcell® ERS-2 Voltohmmeter, Millipore, Burlington, MA, USA) equipped with a pair of electrodes was used for TEER measurement. Baseline TEER measured from cell layers incubated in KBSS was used as control and the change in TEER was presented as a percentage relative to baseline value. Three independent experiments were performed in duplicate.

In a further data set the test system is Calu-3 cell monolayer. The description is as above. The format is cell-based. The following applies: Calu-3 monolayer, apical, 2 h, applied at MTT IC50 and at highest 100% viability concentration. As for the experimental part: as §5

In general, pIC50 refers to the negative decadic logarithm of the IC50, by convention in mol/L. Read a high pIC50 as a small IC50. With `CCCCCCCCCCCCCCCC(=O)OC[C@H]1O[C@@H](O[C@H]2[C@H](O)[C@@H](O)[C@@H](O)O[C@@H]2CO)[C@H](O)[C@@H](O)[C@H]1O` [Lactose palmitate, 6′-O-Esadecanoyl-4-O-(β-D-galactopyranosyl)-D-glucopyranose], the “Amin (minimum area per surfactant molecule)” value in data set [1] is given as 25.69 ± 0.43 Å^2. For the same compound, the “γCMC (surface tension at CMC)” value in data set [1] is on record as 45.1 ± 0.33 mN/m. Moreover, the “CMC (critical micelle concentration)” value in [1] was 0.08 mM and 0.08 ± 0.03 mM. Also, in data set [1], the “Γmax × 10^−6 (maximum surface excess)” value turned out to be 6.46 ± 0.11 mol/m^2. Further, the “mitochondrial membrane potential (J-aggregates:J-monomers ratio)” value in the data set with Caco-2 cells [2] and with Calu-3 cells [3] was “highest cytotoxic effect” in each case. The negative-log IC50 (pIC50) was 3.79 with Caco-2 cells [4]; 3.71 with Caco-2 cells [4] (Homo sapiens, Caco-2, 24 h); 3.85 with Calu-3 cells [5]; 4.22 in the data set on Caco-2 cells [6]; 3.91 in the data set with Calu-3 cells [7].

Take `CCCCCCCCCCCCCC(=O)OC[C@H]1O[C@@H](O[C@H]2[C@H](O)[C@@H](O)[C@@H](O)O[C@@H]2CO)[C@H](O)[C@@H](O)[C@H]1O` [Lactose myristate, 6′-O-Tetradecanoyl-4-O-(β-D-galactopyranosyl)-D-glucopyranose]: in [1], the “Amin (minimum area per surfactant molecule)” value was 19.86 ± 0.80 Å^2, the “γCMC (surface tension at CMC)” value worked out at 45.6 ± 0.19 mN/m, the “CMC (critical micelle concentration)” value worked out at 0.14 ± 0.05 mM and the “Γmax × 10^−6 (maximum surface excess)” value came to 8.37 ± 0.46 mol/m^2. The negative-log IC50 (pIC50) with Caco-2 cells [4] (Homo sapiens, Caco-2, 24 h) was 3.71. For the same compound, the pIC50 in the data set on Calu-3 cells [5] is 3.72. This compound had a pIC50 in the data set with Caco-2 cells [6] of 3.95. Besides, the pIC50 with Calu-3 cells [7] was 3.58.

Turning to `CCCCCCCCCCCC(=O)OC[C@H]1O[C@@H](O[C@H]2[C@H](O)[C@@H](O)[C@@H](O)O[C@@H]2CO)[C@H](O)[C@@H](O)[C@H]1O` [Lactose laurate, 6′-O-Dodecanoyl-4-O-(β-D-galactopyranosyl)-D-glucopyranose], the “Amin (minimum area per surfactant molecule)” value in data set [1] was 17.45 ± 0.09 Å^2. In addition, the “γCMC (surface tension at CMC)” value in [1] is on record as 40.4 ± 0.02 mN/m; in data set [1] (listed as lactose laurate), “around 40 mN/m”. In addition, in data set [1], the “CMC (critical micelle concentration)” value is recorded as 0.55 ± 0.02 mM. Besides, in data set [1], the “Γmax × 10^−6 (maximum surface excess)” value came to 9.52 ± 0.05 mol/m^2. Further, the “effect on TEER” value with Caco-2 cell monolayer is “moderate reduction of TEER”; in the data set with Calu-3 cell monolayer it was “most effective surfactant in decreasing the TEER at both tested concentrations”. Moreover, the negative logarithm of the IC50 (pIC50) in the data set on Caco-2 cells [4] (Homo sapiens, Caco-2, 24 h) is 3.22; in the data set on Calu-3 cells [5] it was 3.34; in the data set with Caco-2 cells [6], 3.42; in the data set on Calu-3 cells [7] it was 2.97.

Turning to `CCCCCCCCCC(=O)OC[C@H]1O[C@@H](O[C@H]2[C@H](O)[C@@H](O)[C@@H](O)O[C@@H]2CO)[C@H](O)[C@@H](O)[C@H]1O` [Lactose caprate, 6′-O-Decanoyl-4-O-(β-D-galactopyranosyl)-D-glucopyranose], the “Amin (minimum area per surfactant molecule)” value in [1] is reported as 17.46 ± 0.25 Å^2. Further, the “γCMC (surface tension at CMC)” value is given as 40.6 ± 0.04 mN/m in [1] and “around 40 mN/m” in [1] (listed as lactose caprate). Moreover, in [1], the “CMC (critical micelle concentration)” value amounted to 2.58 ± 0.32 mM. The “Γmax × 10^−6 (maximum surface excess)” value in [1] is 9.52 ± 0.11 mol/m^2. In addition, the entries for the “effect on TEER” value in the data set on Calu-3 cell monolayer and in the data set on Calu-3 cell monolayer (listed as lactose caprate) were “more significant decrease in TEER in Calu-3 cells compared to Caco-2 cells” and “only slightly affected the TEER”, respectively. Besides, the “LDH Assay IC50” value in the data set on Caco-2 cells [4] and in the data set with Calu-3 cells [5] was “higher than the tested concentration range” in each case. The pIC50 was below 2.70 with Caco-2 cells [4] (Homo sapiens, Caco-2, 24 h); below 2.70 with Calu-3 cells [5]; below 2.70 in the data set with Caco-2 cells [6]; below 2.70 in the data set on Calu-3 cells [7]. The “MTT Assay IC50” value with Caco-2 cells [6] and with Calu-3 cells [7] was “higher than the tested concentration range” throughout.
